Test results reported in patent US20100249172A1, “9-CHLORO NOSCAPINE AND ITS USE IN TREATING CANCERS, INCLUDING DRUG-RESISTANT CANCERS” (EMORY UNIVERSITY, priority 2007, published 2010).

How the values were obtained:
[1] = test system: MDA-MB-231 cells; assay: DAPI staining, cell morphology by fluorescence microscopy; type: cell-based, human; conditions: 25 μM, 72 hours
Experimental: FIG. 2 is a series of photographs showing the effect of 9-chloro-nos on the morphology of cancer cells. Morphologic criteria for apoptotic cell death include, for example, chromatin condensation with aggregation along the nuclear envelope and plasma membrane blebbing followed by separation into small, apoptotic bodies. Panels show morphological evaluation of nuclei stained with DAPI from control cells (upper panels) and cells treated with 25 μM concentration of 9-Cl-nos for 72 hours (lower panels) using fluorescence microscopy. […] (Scale bar=15 μm).
Cell morphology was evaluated by fluorescence microscopy following DAPI staining (Vectashield, Vector Labs, Inc., Burlingame, Calif.). MDA-MB-231 cells were grown on poly-L-lysine coated coverslips in 6-well plates and were treated with the halogenated analogs at 25 μM for 72 hours. After incubation, coverslips were fixed in cold methanol and washed with PBS, stained with DAPI, and mounted on slides. Images were captured using a BX60 microscope (Olympus, Tokyo, Japan) with an 8-bit camera (Dage-MTI, Michigan City, Ind.) and IP Lab software (Scanalytics, Fairfax, Va.). Apoptotic cells were identified by features characteristic of apoptosis (e.g. nuclear condensation, formation of membrane blebs and apoptotic bodies).

[2] = molecular target: T1, tubulin; assay: Tubulin binding assay (fluorescence titration / quenching); design: species or system mammalian; conditions: 2 μM tubulin, 45 min at 37° C., pH 6.8; mean±SD, four experiments; read-out: dissociation constant (Kd) for binding to tubulin
T1 construct: other: 2 μM tubulin, 45 min at 37° C., pH 6.8; mean±SD, four experim
Experimental: Cell culture reagents were obtained from Mediatech, Cellgro. CEM, a human lymphoblastoid line was provided by Dr. William T. Beck (Cancer Center, University of Illinois at Chicago). MCF-7 cells were maintained in Dulbecco's Modification of Eagle's Medium 1× (DMEM) with 4.5 g/L glucose and L-glutamine (Mediatech, Cellgro) supplemented with 10% fetal bovine serum (Invitrogen, Carlsbad, Calif.) and 1% penicillin/streptomycin (Mediatech, Cellgro). MDA-MB-231 and CEM cells were grown in RPMI-1640 medium supplemented with 10% fetal bovine serum, and 1% penicillin/streptomycin. […]
Fluorescence titration for determining the tubulin binding parameters was performed as described previously. […] The relative intrinsic fluorescence intensity of tubulin was then monitored in a JASCO FP-6500 spectrofluorometer (JASCO, Tokyo, Japan) using a cuvette of 0.3-cm path length, and the excitation wavelength was 295 nm. The fluorescence emission intensity of noscapine and its derivatives at this excitation wavelength was negligible. A 0.3-cm path-length cuvette was used to minimize the inner filter effects caused by the absorbance of these agents at higher concentration ranges. In addition, the inner filter effects were corrected using a formula F corrected ═F observed•antilog [(Aex+Aem)/2], where Aex is the absorbance at the excitation wavelength and Aem is the absorbance at the emission wavelength. […]

[3] = test system: caspase-3; assay: Apoptotic mechanism in cancer cells; type: cell-based
[4] = test system: MCF-7 cells; assay: Immunofluorescence confocal microscopy of spindle architecture and nuclear morphology; type: cell-based, human; conditions: 25 μM, 0, 12, 24, 48 and 72 hours
Experimental: Cells adhered to poly-L-lysine coated coverslips were treated with noscapine, 9-chloro-noscapine, and other halogenated analogs (9-F-nos, 9-Br-nos, and 9-I-nos) for 0, 12, 24, 48 and 72 hours. After treatment, cells were fixed with cold (−20° C.) methanol for 5 min and then washed with phosphate-buffered saline (PBS) for 5 min. Non-specific sites were blocked by incubating with 100 μl of 2% BSA in PBS at 37° C. for 15 min. A mouse monoclonal antibody against α-tubulin (DM1A, Sigma) was diluted 1:500 in 2% BSA/PBS (100 μl) and incubated with the coverslips for 2 hours at 37° C. Cells were then washed with 2% BSA/PBS for 10 min at room temperature before incubating with a 1:200 dilution of a fluorescein-isothiocyanate (FITC)-labeled goat anti-mouse IgG antibody (Jackson ImmunoResearch, Inc., West Grove, Pa.) at 37° C. for 1 hour. Coverslips were then rinsed with 2% BSA/PBS for 10 min and incubated with propidium iodide (0.5 μg/ml) for 15 min at room temperature before they were mounted with Aquamount (Lerner Laboratories, Pittsburgh, Pa.) containing 0.01% 1,4-diazobicyclo(2,2,2)octane (DABCO, Sigma). […]
To test whether 9-chloro-noscapine induces spindle abnormalities prior to apoptotic cell death indicated by nuclear fragmentation of dying cells, the spindle architecture and nuclear morphology of MCF-7 cells treated with 9-chloronoscapine was evaluated using confocal microscopy (FIG. 4). […]

[5] = test system: CEM/VLB100 (vinblastine-resistant variant); assay: Inhibition of cell proliferation; type: cell-based, human

SMILES: COc1ccc2c(c1OC)C(=O)O[C@@H]2[C@H]1c2c(c(Cl)c3c(c2OC)OCO3)CCN1C [9-Cl-nos, (S)-3-((R)-9-chloro-4-methoxy-6-methyl-5,6,7,8-tetrahydro-[1,3]dioxolo[4,5-g]isoquinolin-5-yl)-6,7-dimethoxyisobenzofuran-1(3H)-one]
- nuclear morphology, features of apoptotic cells [1]: condensed chromosomes, numerous fragmented micronuclei, and apoptotic bodies are evident
- Kd [2]: 40 ± 8 µM
- caspase-3 activation [3]: associated with activation of the key executioner cysteine protease, caspase-3
- spindle abnormalities / mitotic arrest [4]: mitotic arrest commencing as early as 12 hours, and maximizing at 24 hours
- inhibition of cell proliferation (in words) [5]: effectively inhibits cell proliferation
